From ChEMBL document CHEMBL1127093, “Competitive NMDA receptor antagonists: synthesis of -ketophosphonate-substituted piperidine carboxylic acid derivatives” (Bioorg Med Chem Lett, 1993)

What follows are molecules tested against Glutamate NMDA receptor (assay: Binding potency for NMDA site of the glutamate receptor complex using rat brain cortical membranes in a competitive binding assay with [3H]CPP as the radioligand).
Type: cell membranes, Membrane
Molecule `C[C@]1(C(=O)CP(=O)(O)O)CCCN[C@H]1C(=O)O` has an IC50 of 320 nM.
`C[C@@H]1CCN[C@@H](C(=O)O)[C@H]1C(=O)CP(=O)(O)O` gave an IC50 of 15 nM.
For `O=C(CP(=O)(O)O)C1=CCCN[C@H]1C(=O)O`, the IC50 was 7.6 nM.
`C[C@]1(C(=O)CP(=O)(O)O)C=CCN[C@H]1C(=O)O` was tested, and the IC50 was 3.2 nM.
`O=C(CP(=O)(O)O)[C@H]1CCCN[C@H]1C(=O)O` was tested, and the IC50 was 40 nM.
